Data taken from publication PMC5198017, “The Influence of Solid Microneedles on the Transdermal Delivery of Selected Antiepileptic Drugs” (Pharmaceutics, 2016).
Where a name gives a salt, the structure may show the parent alone. Read-outs that look alike come from different tables or passages of the source.

How the values were obtained:
[1] = In vitro diffusion studies with vertical Franz diffusion cells across untreated and microneedle-treated skin; assay type: in vitro ADME, pig; conditions: for Transdermal flux, Microneedle: 500 μm microneedle roller-treated porcine ear skin; for Transdermal flux, Microneedle / Transdermal flux, Passive: 12 h, ± SD, n = 6; for Transdermal flux, Passive: untreated porcine ear skin; for Statistical significance of difference in flux, untreated versus microneedle-treated skin: porcine skin, carbamazepine as 20% and 30% ethanol solutions, p < 0.05 considered significant
Method: Pig ears were purchased from Pel-Freez Arkansas LLC (Rogers, AR, USA). Upon arrival, ears were shaved with an electric hair clipper. Full-thickness skins were obtained by using a scalpel to remove subcutaneous fat from ear cartilage. An electric dermatome (Nouvag®, Goldach, Switzerland) was used to prepare split-thickness skins. The thickness of the skin samples was determined with the Digimatic micrometer (Mitutoyo, Tokyo, Japan). Skin membranes were wrapped in aluminum foil and stored at -20 °C until ready for use. Experiments were approved by the Institutional Animal Care and Use Committee (IACUC) and Institutional Biosafety Committee (IBC) of Touro University, Mare Island-Vallejo, CA, USA. Microchannels were created on porcine skins using solid microneedle rollers and skin samples were then clamped to the diffusion cells. The roller was applied to the pig ear skin 15 times (five times in the vertical, horizontal and diagonal directions). The roller was applied with a force of 5 kg (measured with a weighing balance) for approximately 1 min per application. Three microneedle-treated split-thickness skin (STS) samples were used for the experiment while three untreated skin samples served as controls. […] The drug was placed on porcine skin. The pig skin was sandwiched between the donor and receptor compartments of Franz diffusion cells. The donor compartment and covered with parafilm and aluminum foil to reduce evaporation. The sampling ports were also sealed. […] Extractions were stored in 2 mL amber vials from Agilent Technologies (Agilent, Santa Clara, CA, USA) and stored at -8 °C until shipment to the University of Idaho for analysis. Receptor chambers were replenished after each extraction with 1 mL of fresh, pre-warmed PBS maintained at 37 °C. We carried out in vitro diffusion studies with six vertical Franz Diffusion cells (PermeGear, Hellertown, PA, USA). Each cell has donor compartments and receptor compartments. In each cell, there is a magnetic stirrer, sampling port, and a water jacket maintained at a 37 °C model human body temperature. The receptor compartment has a diffusion area of 1.77 cm^2 and the volume is 12 mL. The receptor compartment was filled with PBS, and we utilized high-vacuum grease (Dow Corning, Midland, MA, USA) and a metal clamp to prevent loss of the drug solution through lateral diffusion. HPLC analysis was performed using an Agilent 1200 Series HPLC system with a diode array detection (DAD) system coupled to an Agilent […] TOF-MS system equipped with an ESI source (Agilent, Santa Clara, CA, USA). […] The injection volume was 5 μL. The mobile phase comprised of 0.1% formic acid in water (solvent A) and 0.1% formic acid in methanol (solvent B). We first used a linear gradient from 15% to 95% B in 7 min, and then isocratic elution was carried out at 95% B for 2 min. The final equilibration was conducted at 15% B for 5 min. We diverted the flow from the mass spectrometer for the first 3 min of the analysis, in order to prevent MS contamination and ion suppression. The flow rate was 0.3 mL·min^-1. The average cumulative amount of drug permeation through porcine skin was plotted as a function of time. Steady-state flux was calculated from the linear portion of the average cumulative amount versus time curve. Six replicates were utilized for each drug. […] (1) […] Statistical analysis was performed using GraphPad Prism 7 (GraphPad Software, Inc., La Jolla, CA, USA). The Mann-Whitney Rank Sum test was carried out to determine statistical significance. […] The average of replicate measurements (n = 6) with corresponding standard deviation was used to plot the graphs.

[2] = cited from earlier work
[3] = cited from earlier work; remark: listed apart in the source
[4] = cited from earlier work; remark: listed apart in the source
[5] = set-up: method as in PMID 23454133; conditions: after application of nanostructured lipid carriers; cited from earlier work
[6] = carbamazepine 1 mg/mL in 20% ethanol/PBS, listed as Carbamazepine in 20% ethanol
[7] = carbamazepine 1 mg/mL in 30% ethanol/PBS
[8] = tiagabine hydrochloride 5 mg/mL in PBS

Row | Transdermal flux, Microneedle [1, 6] | Transdermal flux, Passive [1, 6] | Transdermal flux, Microneedle [1, 7] | Transdermal flux, Passive [1, 7] | Statistical significance of difference in flux, untreated versus microneedle-treated skin [1] | Transdermal flux, Microneedle [1, 8] | Transdermal flux, Passive [1, 8] | Flux Increase ([1]; tiagabine hydrochloride in PBS, microneedle versus passive) | Structure (SMILES) | Partition coefficient [2] | Aqueous solubility ([3]; at 32 °C in phosphate buffer saline of pH 7.4) | Clearance [4] | Excreted in urine unchanged [4] | Partition coefficient ([2]; tiagabine hydrochloride) | Aqueous solubility ([3]; tiagabine hydrochloride) | Blood–brain barrier passage ([4]; after drug administration) | Unchanged when excreted as urine [4] | Volume of distribution [4] | Transdermal flux enhancement [5]
1 | 10.85 ± 0.11 µg/cm^2/h | 7.85 ± 0.60 µg/cm^2/h | 36.73 ± 1.83 µg/cm^2/h | 30.74 ± 1.32 µg/cm^2/h | not statistically significant |  |  |  | NC(=O)N1c2ccccc2C=Cc2ccccc21 [Carbamazepine, carbamazepine] | 2.7 ± 0.3 | 440.6 ± 20.6 µg/mL | 1.87 ± 0.245 mL/min/kg | 1% |  |  |  |  |  | 
2 |  |  |  |  | statistically significant | 86.42 ± 25.66 µg/cm^2/h | 12.83 ± 6.30 µg/cm^2/h | 6.74 fold | Cc1ccsc1C(=CCCN1CCC[C@@H](C(=O)O)C1)c1sccc1C [Tiagabine hydrochloride, tiagabine hydrochloride] |  |  |  |  | 2.6 | 10000 µg/mL | readily cross the blood–brain barrier | less than 1% | 1 L/kg | 
3 |  |  |  |  |  |  |  |  | Cc1cc2c(s1)Nc1ccccc1N=C2N1CCN(C)CC1 [olanzapine] |  |  |  |  |  |  |  |  |  | did not observe significant transdermal flux enhancement
